Measurements as given in patent US8729048B2, “Methods and materials for assessing responsiveness to PARP inhibitors and platinating agents” (Mayo Foundation for Medical Education and Research, priority 2011, dated 2014).
“Also recorded” adds a separate entry of the source.

Legend:
Format in all cases: cell-based
PEO1 cells = assay: Cytogenetics, metaphase spreads, PEO1
Method: FIG. 4. PARP inhibitor-induced chromosomal derangement and genomic instability is dependent on DNA-PK activity. (A) Representative images of metaphase spreads from cells treated with diluent (0.2% DMSO), 500 nM DNA-PKi, 2.5 μM ABT-888, or both ABT-888 and DNA-PKi for 72 hours. Chromosomal breaks are marked with arrowheads and radial structures are marked with asterisks. (B) Quantitation of data from (A) showing average radial chromosomes per cell (n=100 for each data point pooled from two separate experiments, error bars represent SEM). † indicate values that are zero. (C) Calculated mutagenesis frequency in BRCA2-mutant CAPAN1 cells after control treatment or exposure to ABT-888 with or without 250 nM DNA-PKi. Each bar represents the mean±SEM of 5-8 plates.
Cell harvest and metaphase slide preparation were performed for metaphase analysis as described elsewhere (Fletcher, Curr. Protoc. Hum. Genet., 2:Unit 10.13. (1994)). Fifty non-banded metaphases from each cell line were analyzed and scored for radial formations as well as major and minor breakage according to the International System of Human Cytogenetic Nomenclature. Images of cells with breakage were captured using a CytoVision Imaging System (Genetix; New Milton, UK).

[1] = test system: NHEJ activity in PEO4 cells; assay: NHEJ end-joining reporter assay, PEO4; conditions: 72 hours
Source text: FIG. 3. Error-prone NHEJ activity is enhanced by PARP inhibitors in PEO1 cells. (A) Schematic of the in vivo NHEJ assay. Pem1-Ad2-EGFP is an EGFP-containing vector with a 2.4 kb intron (Pem1) and one exon (Ad2) inserted into the EGFP cassette. Pem1-Ad2-EGFP was cut with either HindIII or I-SceI to produce linearized substrate with compatible overhangs or incompatible inverted overhangs, respectively. Successfully recircularized plasmid will produce intact EGFP, which can be assayed via flow cytometry. Any residual uncut plasmid, due to the insertion of the Ad2 exon within the EGFP open reading frame, will be EGFP negative. A pCherry plasmid was co-transfected with substrate to correct for transfection efficiency. (B) and (C) Quantitation of NHEJ activity in PEO1 and PEO4 cells transfected with HindIII substrate (B) or I-SceI substrate (C) and exposed to ABT-888 for 72 hours. Each data point represents the mean±SEM from 3 independent experiments.
The end-joining reporter plasmid pEGFP-Pem1-Ad2 described elsewhere (Wang et al., Nucleic Acids Res., 34:6170-6182 (2006); Seluanov et al., Proc. Natl. Acad. Sci. USA, 101:7624-7629 (2004); and Fattah et al., PLoS Genet., 6:e1000855 (2010); see also (FIG. 3A)) was provided by E. Hendrickson (University of Minnesota, Minneapolis, Minn.) and was digested with either HindIII or I-SceI for 12 hours, and gel purified using a Qiagen gel extraction kit. […]

[2] = test system: ATM-deficient GM16666 fibroblasts; assay: Clonogenic assay, GM16666; conditions: GM16666 cells versus ATM-reconstituted GM16667, 48 hours
Method: FIG. 6. […] (A) BRCA1-deficient HCC1937 and BRCA1-reconstituted HCC1937/BRCA1 cells were continuously exposed to ABT-888 in the presence or absence of 125 nM DNA-PKi and assayed for clonogenic survival. Inset, Western blots of cell lysates from HCC1937 and HCC1937/BRCA1. (B) Western blots of M059J and reconstituted M059J+DNA-PKcs lines showing the restoration of DNA-PK expression and the shRNA-mediated knockdown of BRCA1. (C) Clonogenic survival of shRNA transfected M059J/M059J+DNA-PKcs lines treated with ABT-888 for 72 hours. (D) Clonogenic survival of ATM-deficient GM16666 or ATM-reconstituted GM16667 fibroblasts. Cells were exposed to ABT-888 for 48 hours in the presence or absence of 250 nM DNA-PKi, washed, and allowed to form colonies. Inset, Western blots of lysates from GM16666 and GM16667 fibroblasts. […] Results are representative of 3 independent experiments.
Colony formation assays were performed on siRNA-transfected PEO1 and PEO4 cells 48 hours after the second transfection. Cells were trypsinized and plated at 750 cells/plate in triplicate 60-mm dishes containing medium A, allowed to grow 10-14 days, and stained with Coomassie Brilliant Blue. Colonies containing ≧50 cells were scored manually. […]

SMILES	effect on ABT-888-induced chromosome breaks and radial structures (PEO1 cells; 500 nM DNA-PKi with 2.5 μM ABT-888, 72 hours)	chromosome breaks and aberrant radial structures (PEO1 cells; 2.5 μM ABT-888, 72 hours)	end-joining of HindIII-linearized substrate [1]	clonogenic sensitivity [2]
CCN1CCN(CC(=O)Nc2ccc(-c3cccc4c(=O)cc(N5CCOCC5)oc34)c3sc4ccccc4c23)CC1 [AZ 12594248]	substantially diminished this effect	–	–	–
C[C@]1(c2nc3c(C(N)=O)cccc3[nH]2)CCCN1 [ABT-888]	–	induced the formation of chromosome breaks and aberrant radial structures	little effect; also recorded: small increase in end-joining	heightened sensitivity
